Experimental data from the supplement of paper PMC10307832.

Columns and labels:
Test in all cases: relative viability (nuclei count vs DMSO), 5 days (fraction); higher = more cells survive
[1] = compound: C1=CC=C(C(=C1)C2=CC=C(C=C2)C3=CSC4=C3C(=C(C(=O)N4)C#N)O)O + COc1cccc2cc(-c3nc([C@H]4CC[C@H](C(=O)O)CC4)n4ncnc(N)c34)[nH]c12 [OSI-027] (partner 0.5 µM)
Method in brief: (§1)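 Each reported value is a median over duplicate plates. It expresses relative viability: treated-well nuclei count divided by vehicle-well nuclei count. Lung cancer cell lines in 1536-well plates were dosed by pin tool a day after seeding, alone with one drug or with a fixed anchor-drug dose plus five library-drug doses (not always all listed) in √10 steps, and nuclei were counted after 5 days.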

[2] = compound: C1=CC=C(C(=C1)C2=CC=C(C=C2)C3=CSC4=C3C(=C(C(=O)N4)C#N)O)O + Cc1nc(Nc2ncc(C(=O)Nc3c(C)cccc3Cl)s2)cc(N2CCN(CCO)CC2)n1 [Dasatinib] (partner 0.075 µM)
Method in brief: as §1

[3] = compound: CC1=CN2C(=O)C=C(N=C2C(=C1)C(C)NC3=CC=CC=C3)N4CCOCC4 [TGX 221] + CC(=O)Nc1cccc(-n2c(=O)n(C3CC3)c(=O)c3c(Nc4ccc(I)cc4F)n(C)c(=O)c(C)c32)c1 [Trametinib] (partner 0.02 µM)
Method in brief: as §1

[4] = compound: CC1=CN2C(=O)C=C(N=C2C(=C1)C(C)NC3=CC=CC=C3)N4CCOCC4 [TGX 221] + N=C(N)NC(=N)NCCc1ccccc1 [Phenformin] (partner 250 µM)
Method in brief: as §1

Cell Line	relative viability ([1]; first compound 0.08 µM)	relative viability ([1]; first compound 0.253 µM)	relative viability ([1]; first compound 0.8 µM)	relative viability ([1]; first compound 2.53 µM)	relative viability ([1]; first compound 8 µM)	relative viability ([2]; first compound 0.08 µM)	relative viability ([2]; first compound 0.253 µM)	relative viability ([2]; first compound 0.8 µM)	relative viability ([2]; first compound 2.53 µM)	relative viability ([2]; first compound 8 µM)	relative viability ([3]; first compound 0.08 µM)	relative viability ([3]; first compound 0.253 µM)	relative viability ([3]; first compound 0.8 µM)	relative viability ([3]; first compound 2.53 µM)	relative viability ([3]; first compound 8 µM)	relative viability ([4]; first compound 0.08 µM)	relative viability ([4]; first compound 0.253 µM)	relative viability ([4]; first compound 0.8 µM)	relative viability ([4]; first compound 2.53 µM)	relative viability ([4]; first compound 8 µM)
PC-14	0.924	0.986	0.874	0.978	0.46	0.244	0.261	0.272	0.27	0.239	0.666	0.701	0.701	0.717	0.515	0.502	0.543	0.556	0.638	0.667
RERF-LC-KJ	0.562	0.755	0.561	0.551	0.457	0.765	0.889	0.854	0.771	0.657	0.686	0.756	0.83	0.775	0.753	0.439	0.434	0.398	0.377	0.326
SK-LU-1	0.342	0.369	0.276	0.397	0.3	0.172	0.198	0.161	0.198	0.196	0.483	0.672	0.542	0.356	0.41	0.542	0.502	0.498	0.491	0.477
SK-MES-1	0.711	0.666	0.562	0.67	0.419	0.391	0.334	0.309	0.274	0.359	0.526	0.572	0.449	0.379	0.339	0.71	0.66	0.706	0.719	0.574
SW 900	0.461	0.628	0.426	0.462	0.356	0.596	0.937	0.594	0.361	0.531	–	0.613	0.871	0.575	0.5	0.572	0.455	0.473	0.448	0.525
SW 1573	0.618	0.821	0.657	0.54	0.391	0.498	0.618	0.662	0.666	0.369	0.518	0.429	0.567	0.382	0.442	0.325	0.296	0.409	0.322	0.369
UMC-11	0.429	0.641	0.503	0.446	0.437	0.328	0.432	0.573	0.524	0.374	0.671	0.648	0.822	0.777	0.823	0.322	0.288	0.302	0.349	0.324
